Experimental data reported in the NIST ThermoML archive (doi:10.1016/j.jct.2008.07.013).
± gives the expanded uncertainty stated by the source.

Assays:
[1] = Liquid, Alternating current cell with electrodes
[2] = molar heat capacity at constant pressure; details: 101.33 kPa, Liquid, Small sample (50 mg) DSC

Row | Compound | electrical conductivity ([1]; 293.2 K) [S/m] | electrical conductivity ([1]; 298.2 K) [S/m] | electrical conductivity ([1]; 303.2 K) [S/m] | electrical conductivity ([1]; 308.2 K) [S/m] | electrical conductivity ([1]; 313.2 K) [S/m] | electrical conductivity ([1]; 318.2 K) [S/m] | electrical conductivity ([1]; 323.2 K) [S/m] | electrical conductivity ([1]; 328.2 K) [S/m] | electrical conductivity ([1]; 333.2 K) [S/m] | electrical conductivity ([1]; 343.2 K) [S/m] | electrical conductivity ([1]; 353.2 K) [S/m] | molar heat capacity at constant pressure ([2]; 303.2 K) [J/K/mol] | molar heat capacity at constant pressure ([2]; 308.2 K) [J/K/mol] | molar heat capacity at constant pressure ([2]; 313.2 K) [J/K/mol] | molar heat capacity at constant pressure ([2]; 318.2 K) [J/K/mol] | molar heat capacity at constant pressure ([2]; 323.2 K) [J/K/mol] | molar heat capacity at constant pressure ([2]; 328.2 K) [J/K/mol] | molar heat capacity at constant pressure ([2]; 333.2 K) [J/K/mol] | molar heat capacity at constant pressure ([2]; 338.2 K) [J/K/mol] | molar heat capacity at constant pressure ([2]; 343.2 K) [J/K/mol] | further results
1 | CCn1cc[n+](C)c1.O=S(=O)([O-])C(F)(F)F [1-ethyl-3-methylimidazolium trifluoromethanesulfonate] | 0.834 ± 0.028 | 0.979 ± 0.028 | 1.16 ± 0.033 | 1.34 ± 0.036 | 1.52 ± 0.031 | 1.74 ± 0.031 | 1.94 ± 0.033 | 2.17 ± 0.039 | 2.42 ± 0.036 | 2.94 ± 0.028 | 3.51 ± 0.036 | 379.42 ± 50 | 381.5 ± 50 | 383.33 ± 50 | 385.41 ± 50 | 387.49 ± 51 | 389.57 ± 51 | 391.65 ± 51 | 393.74 ± 52 | 395.82 ± 52 | molar heat capacity at constant pressure ([2]; 348.2 K): 397.9 ± 52 J/K/mol; molar heat capacity at constant pressure ([2]; 353.2 K): 399.72 ± 52 J/K/mol; molar heat capacity at constant pressure ([2]; 358.2 K): 401.8 ± 53 J/K/mol
2 | CCn1cc[n+](C)c1.COCCOCCOS(=O)(=O)[O-] [1-ethyl-3-methylimidazolium 2-(2-methoxyethoxy) ethylsulfate] | 0.11 ± 0.031 | 0.147 ± 0.025 | 0.194 ± 0.025 | 0.244 ± 0.028 | 0.307 ± 0.036 | 0.378 ± 0.031 | 0.459 ± 0.033 | 0.545 ± 0.033 | 0.641 ± 0.031 | 0.859 ± 0.036 | 1.12 ± 0.036 | 526.38 ± 69 | 527.94 ± 69 | 529.49 ± 69 | 531.04 ± 70 | 532.59 ± 70 | 533.83 ± 70 | 535.7 ± 70 | 537.25 ± 70 | 538.8 ± 70 | molar heat capacity at constant pressure ([2]; 348.2 K): 540.66 ± 71 J/K/mol; molar heat capacity at constant pressure ([2]; 353.2 K): 542.21 ± 71 J/K/mol; molar heat capacity at constant pressure ([2]; 358.2 K): 544.08 ± 71 J/K/mol
3 | CCn1cc[n+](C)c1.F[B-](F)(F)F [1-ethyl-3-methylimidazolium tetrafluoroborate] | 1.38 ± 0.025 | 1.57 ± 0.028 | 1.789 ± 0.008 | 2.04 ± 0.028 | 2.32 ± 0.036 | 2.59 ± 0.036 | 2.91 ± 0.033 | 3.25 ± 0.033 | 3.59 ± 0.031 | 4.35 ± 0.036 | 5.18 ± 0.031 | 306.26 ± 40 | 308.44 ± 40 | 310.61 ± 41 | 312.79 ± 41 | 314.38 ± 41 | 315.37 ± 41 | 316.36 ± 41 | 318.34 ± 42 | 319.33 ± 42 | molar heat capacity at constant pressure ([2]; 348.2 K): 321.3 ± 42 J/K/mol; molar heat capacity at constant pressure ([2]; 353.2 K): 322.89 ± 42 J/K/mol; molar heat capacity at constant pressure ([2]; 358.2 K): 323.48 ± 42 J/K/mol
4 | CCOS(=O)(=O)[O-].CCn1cc[n+](C)c1 [1-ethyl-3-methylimidazolium ethyl sulfate] | 0.31 ± 0.022 | 0.398 ± 0.025 | 0.493 ± 0.008 | 0.603 ± 0.028 | 0.722 ± 0.028 | 0.852 ± 0.028 | 1 ± 0.025 | 1.17 ± 0.025 | 1.34 ± 0.025 | 1.74 ± 0.028 | 2.15 ± 0.028 | 429.81 ± 56 | 431.7 ± 56 | 435.01 ± 57 | 437.14 ± 57 | 441.39 ± 58 | 444.46 ± 58 | 447.3 ± 59 | 450.13 ± 59 | 452.97 ± 59 | molar heat capacity at constant pressure ([2]; 348.2 K): 456.51 ± 60 J/K/mol; molar heat capacity at constant pressure ([2]; 353.2 K): 461 ± 60 J/K/mol; molar heat capacity at constant pressure ([2]; 358.2 K): 463.6 ± 61 J/K/mol
5 | CCn1cc[n+](C)c1.N#CN=C=[N-] [1-ethyl-3-methylimidazolium dicyanamide] | 1.89 ± 0.036 | 2.2 ± 0.042 | 2.55 ± 0.036 | 2.9 ± 0.028 | 3.29 ± 0.036 | 3.68 ± 0.036 | 4.1 ± 0.039 | 4.54 ± 0.031 | 5.02 ± 0.031 | 5.93 ± 0.033 | 6.86 ± 0.028 | 328.01 ± 43 | 329.96 ± 43 | 332.97 ± 44 | 335.1 ± 44 | 338.64 ± 44 | 340.77 ± 44 | 342.72 ± 45 | 344.49 ± 45 | 346.44 ± 45 | molar heat capacity at constant pressure ([2]; 348.2 K): 348.92 ± 46 J/K/mol; molar heat capacity at constant pressure ([2]; 353.2 K): 351.58 ± 46 J/K/mol; molar heat capacity at constant pressure ([2]; 358.2 K): 354.24 ± 46 J/K/mol
